Values joined by “and” are separate entries in the source; they are usually repeats but may differ in a detail not shown here. Identical values can stand only once.
Tests used:
Assay type in all cases: in vivo
nursery pigs [1] = assay: Gain to feed ratio during d 15 to 28 in nursery pigs; conditions: for G:F (d 15 to 28): 80 ppm Cu
Source text: (§1) A total of 288 weaning barrows [TR-4×PIC C-22, initial body weight (BW)=5.71±0.71 kg] were allotted to 1 of 8 dietary treatments according to randomized complete block design. Pigs were blocked by initial body weight. The study started from weaning (day 0) to day 42 post-weaning. Three-phase feeding program was used in this study, in which day 0 to 14, day 15 to 28, and day 29 to 42 were considered as nursing phase 1, 2, and 3, respectively. A basal diet for each phase was formulated to meet the energy and nutrient requirement for different stages of pigs according to previously published recommendation,^1 with the exception of P [0.15% reduction of standardized total tract digestible (STTD) P] and Ca (adjusted according to the fixed ratio of Ca/STTD P=2.15). Eight experimental diets were formulated based on basal diet supplemented with phytase (0 or 500 FTU/kg), Zn sources (2000 ppm Zn from ZnO in phase 1 and 2, 100 ppm Zn from ZnO in phase 3; 100 ppm Zn from Zn(HMTBA)2 from phase 1 to 3) and Cu sources (150, 80, 80 ppm Cu from CuSO4 or Cu(HMTBA)2 in phase 1, 2, and 3, respectively) in a 2×2×2 factorial treatment design. Titanium dioxide at 0.4% was included in phase 2 diets to measure Ca and P digestibility.
(§2) SAS 9.4 (SAS Inst. Inc., Gary, N.C.) was used for all data analysis. Pen served as the experimental unit. The LSMEANS statement was be used to calculate the least square means. Tukey-Kramer adjustment was used for multiple comparisons of the least square means. Pooled SEM will be calculated for each measurement. A probability of P 0.05 will be considered as significant and 0.05<P≤0.10 will be declared as a trend. Mineral sources (Zn and Cu), phytase and their interactions were considered as the main effect, while block was considered as the random effect.

nursery pigs [2] = assay: Bone (third metacarpal) Ca, P and ash concentrations in nursery pigs on day 42; conditions: for Bone Ca (DM basis) / Bone P (DM basis) / Bone ash (DM basis): day 42
Source text: as §1
On day 42, 2 pigs from each pen were euthanized to collect the right front legs. The third metacarpal bone from each right front leg was used to determine DM, Ca, P, and ash concentrations.
as §2

nursery pigs [3] = assay: Standardized total tract digestibility (STTD) of Ca and P in nursery pigs, fecal grab sampling day 24 to 26, titanium dioxide marker; conditions: for STTD of Ca / STTD of P: ZnO 2000 ppm Zn vs Zn(HMTBA)2 100 ppm Zn, nursery phase 2
Source text: as §1
Fresh fecal samples were collected via grab sampling from each pig per pen at least twice per day from day 24 to 26. Fecal samples collected from the same pen during the 3 days were pooled together, and a subsample was placed inside a large oven set at 65° C. Oven dried fecal samples were stored at room temperature until analysis for dry matter (DM), Ca, P, and titanium (Ti).
The apparent total tract digestibility (ATTD) coefficient for Ca and P in each treatment was calculated using the following formula:
ATTD of Ca, %=[1−(Cafeces/Cadiet)×(Mdiet/Mfeces)]×100 (Equation 1)
ATTD of P, %=[1−(Pfeces/Pdiet)×Mdiet/Mfeces)]×100 (Equation 2) where Cafeces and Cadiet represented Ca concentrations (g/kg) in feces and diet DM, respectively; Pfeces and Pdiet represented P concentrations (g/kg) in feces and diet DM; Mdiet and Mdigesta represent the marker concentrations (g/kg) in diet and feces DM, respectively.
The standard total tract digestibility (STTD) of Ca was calculated according to the following equation:
STTD of Ca, %=[ATTD of Ca+(basal ECaLend/Cadiet)×100] (Equation 3) where Cadiet represented Ca concentrations (g/kg) in diet DM, respectively; basal ECaLend represented basal endogenous loss of Ca which was approximately 330 mg/kg DMI.
The standard total tract digestibility (STTD) of P was calculated according to the following equation:
STTD of P, %=[ATTD of P+(basal EPLend/Pdiet)×100] (Equation 4) where Pdiet represented P concentrations (g/kg) in diet DM, respectively; basal EPLend represented basal endogenous loss of P which was approximately 190 mg/kg DMI.
as §2

[4] = both supplemented at 80 ppm, Cu source main effect

Structure (SMILES) | Difference to CuSO4 in gain to feed ratio (G:F) during day 15 to 28 (nursery pigs [1]; [4]) | G:F (d 15 to 28) (nursery pigs [1]; no phytase) [g/g] | G:F (d 15 to 28) (nursery pigs [1]; with phytase 500 FTU/kg) [g/g] | Difference to CuSO4 in bone Ca, P and ash (nursery pigs [2]; [4]) | Bone Ca (DM basis) (nursery pigs [2]; no phytase) [%] | Bone P (DM basis) (nursery pigs [2]; no phytase) [%] | Bone ash (DM basis) (nursery pigs [2]; no phytase) [%] | Bone Ca (DM basis) (nursery pigs [2]; with phytase 500 FTU/kg) [%] | Bone P (DM basis) (nursery pigs [2]; with phytase 500 FTU/kg) [%] | Bone ash (DM basis) (nursery pigs [2]; with phytase 500 FTU/kg) [%] | STTD of Ca (nursery pigs [3]; no phytase) | STTD of P (nursery pigs [3]; no phytase) [%] | STTD of Ca (nursery pigs [3]; with phytase 500 FTU/kg) [%] | STTD of P (nursery pigs [3]; with phytase 500 FTU/kg) [%] | Absolute increase of STTD of Ca compared with ZnO (nursery pigs [3]; with phytase supplementation) [%] | Absolute increase of STTD of P compared with ZnO (nursery pigs [3]; with phytase supplementation) [%] | Absolute increase of STTD of Ca compared with ZnO (nursery pigs [3]; without phytase) [%] | Absolute increase of STTD of P compared with ZnO (nursery pigs [3]; without phytase) [%]
CSCCC(O)C(=O)[O-].CSCCC(O)C(=O)[O-].[Cu+2] (stereo not drawn) [Cu(HMTBA)2] | no significant differences | 0.75 | 0.84 | no significant differences | 12.55 | 6.44 | 35.95 | 14.89 | 7.81 | 41.97 | – | – | – | – | – | – | – | –
O=S(=O)([O-])[O-].[Cu+2] [CuSO4, reference compound] | – | 0.76 | 0.80 | – | 13.04 | 6.65 | 36.69 | 14.14 | 7.38 | 40.41 | – | – | – | – | – | – | – | –
CSCCC(O)C(=O)[O-].CSCCC(O)C(=O)[O-].[Zn+2] (stereo not drawn) [Zn(HMTBA)2] | – | – | – | – | – | – | – | – | – | – | 53.30% | 32.65 | 65.63 | 46.36 | 6.45 | 12.68 | 4.81 | 29.98
[O]=[Zn] [ZnO, reference compound] | – | – | – | – | – | – | – | – | – | – | 48.48% and 48.49% | 2.67 | 59.18 | 33.68 | – | – | – | –

— US20190150481A1, “COMPOSITIONS AND METHODS OF IMPROVING DIETARY PHOSPHORUS AND CALCIUM UTILIZATION IN ANIMALS” (Novus International, Inc., priority 2017, published 2019)
